Common to all, as to type: cell-based
Data set [1] concerns SARS-CoV-2 (hCoV-19/Japan/TY/WK 521/2020 strain). Nature of the data set: microbe, parasite or virus in culture. The conditions noted are these: HEK293T/ACE2-TMPRSS2 cells; for EC50: Severe acute respiratory syndrome coronavirus 2, HEK-293T, 72 h, read-out: SARS-CoV-2 EC50 (50% CPE inhibitory concentration), 293T-AT, 3 days culture.
The nature of data set [2]: Cytotoxic activity evaluation, HEK293T/ACE2-TMPRSS2 cells. The conditions noted are these: human, no virus. The procedure:
(§1) <Operation Procedure (Cytotoxic Activity Evaluation)>
A 3- to 5-fold serial dilution series of test substances was prepared in DMSO, diluted with 2% FIBS/MEM so that the concentration of DMSO was 2%, and dispensed into a 96 or 384/well well plate (50 μL/well or 40 μL/well, DMSO final concentration 0.5%). • Dilution and dispensing of cells
The cells prepared to an appropriate number were seeded at 100 μL/well or 40 μL/well to the plate into which the test substance was dispensed. Thereafter, the cells were cultured in a CO2 incubator at 37° C. for 3 days. • Dispensing of CellTiter-Glo (registered trademark) 2.0 Reagent
(§2) Same as those described in the section for evaluation of antiviral activity • Measurement of luminescence intensity
(§3) Same as those described in the section for evaluation of antiviral activity
(§4) [formula] [formula] • Calculation of Selectivity Index (SI)

Data set [3] in a line: Cytotoxic activity evaluation, Vero E6/TMPRSS2 cells. As to conditions: African green monkey, no virus. The procedure: as §1
A 3- to 5-fold serial dilution series of test substances was prepared in DMSO, diluted with 2% FBS/MEM so that the concentration of DMSO was 2%, and dispensed into a 96 well plate (50 μL/well, DMSO final concentration 0.5%). • Dilution and dispensing of cells
The cells prepared to an appropriate number were seeded at 100 μL/well to the plate into which the test substance was dispensed. Thereafter, the cells were cultured in a CO2 incubator at 37° C. for 3 days. • Dispensing of CellTiter-Glo (registered trademark) 2.0 Reagent
as §2, §3
Excel, TIBCO Spotfire, or a program having equivalent calculation processing capability based on the following calculation formula.

For data set [4], the system named is SARS-CoV-2 (hCoV-19/Japan/TY/WK-521/2020 strain). Kind of data set: CPE suppression effect confirmation test (SARS-CoV-2, Vero E6/TMPRSS2 cells), antiviral activity. The conditions noted are these: for EC50: Severe acute respiratory syndrome coronavirus 2, VeroE6/TMPRSS2, 72 h, read-out: SARS-CoV-2 EC50 (50% CPE inhibitory concentration), 3 days culture.
Data set [5] deals with influenza virus (A/WSN/33 (H1N1) strain). Kind of data set: CPE suppression effect confirmation test (influenza virus, RPMI 2650 cells), antiviral activity. The conditions noted are these: for EC50: read-out: Influenza EC50 (50% CPE inhibitory concentration), A/WSN/33 (H1N1), 3 to 6 days.
Data set [6] is described as follows: Cytotoxic activity evaluation, RPMI 2650 cells. The conditions noted are these: human, no virus, 3 to 6 days. The procedure: as §1
On the day before the compound treatment, cells prepared to an appropriate number were seeded in a 96 well plate at 100 μL/well. Thereafter, the cells were cultured in a CO2 incubator at 37° C. • Preparation of 2 μg/mL trypsin/0.5% BSA/MEM
Same as those described in the section for evaluation of antiviral activity • Dilution and dispensing of test substance
A 3- to 5-fold serial dilution series of test substances was prepared in DMSO in advance, and diluted with 2 μg/mL trypsin/0.5% BSA/MEM so that the final concentration of DMSO was 0.5% (100 to 200 μL/well). The cells were washed with MEM, and then cultured in a test substance-added medium for 3 to 6 days. Double measurement was performed for each drug. • Dispensing of resazurin solution
Same as those described in the section for evaluation of antiviral activity • Measurement of fluorescence intensity
as §3, §4

As a reminder, the CC50 is the concentration giving 50% cytotoxicity. Low readings indicate harm at low concentration, high ones better tolerance by the cells. For the compound `Cl.Nc1ncnc2c([C@@H]3N[C@H](CO)[C@@H](O)[C@H]3O)cc(-c3c[nH]nn3)n12` [Compound I-083], in data set [1], the “SARS-CoV-2 SI (Selectivity Index), 293T-AT” value is 8.71 and the EC50 was 5.2 µM. Moreover, the 50% cytotoxic concentration (CC50) at 3 days in data set [2] was 45.3 µM.
The corresponding values for `Cc1nc(N)c2c(C(N)=O)cc([C@@H]3N[C@H](CO)[C@@H](O)[C@H]3O)n2n1.Cl` [Compound I-089] are greater than 14.2, 35.3 µM and greater than 500 µM.
As to `NC(=O)c1cc([C@@H]2N[C@H](CO)[C@@H](O)[C@H]2O)n2ncnc(N)c12` [Compound I-010], the CC50 at 3 days in data set [3] was 448 µM. Also, in data set [4], the “SARS-CoV-2 SI (Selectivity Index)” value is 2488 and the EC50 is 0.18 µM. Further, in data set [1], the “SARS-CoV-2 SI (Selectivity Index), 293T-AT” value turned out to be 1050 and the EC50 worked out at 0.0395 µM.
Turning to `Cc1cnc(-c2cc([C@@H]3N[C@H](CO)[C@@H](O)[C@H]3O)n3ncnc(N)c23)o1.Cl` [Compound I-090], in data set [1], the “SARS-CoV-2 SI (Selectivity Index), 293T-AT” value was greater than 13.1 and the EC50 was found to be 38.1 µM. Besides, the 50% cytotoxic concentration (CC50) at 3 days in data set [2] was greater than 500 µM.
With `Nc1ncnn2c([C@@H]3N[C@H](CO)[C@@H](O)[C@H]3O)cnc12` [Compound I-001], in data set [5], the “Influenza SI (Selectivity Index)” value is recorded as 67.1 and the EC50 came to 1.05 µM. The same compound displayed a CC50 at 3 days in data set [3] of 0.977 µM. In addition, in data set [4], the “SARS-CoV-2 SI (Selectivity Index)” value is less than 1.22 and the EC50 is greater than 0.8 µM. The same compound had a CC50 in data set [6] of 70.5 µM.
In the case of `Cl.Nc1nc(F)nn2c([C@@H]3N[C@H](CO)[C@@H](O)[C@H]3O)cc(-c3ncc[nH]3)c12` [Compound I-094], in data set [1], the “SARS-CoV-2 SI (Selectivity Index), 293T-AT” value is recorded as greater than 10.2 and the EC50 came out at 49.1 µM. This compound also displayed a CC50 at 3 days in data set [2] greater than 500 µM.
The corresponding values for `Cl.Nc1nc(F)nn2c([C@@H]3N[C@H](CO)[C@@H](O)[C@H]3O)cc(-c3c[nH]nn3)c12` [Compound I-082] are 37.8, 3.97 µM and 150 µM.
`Cl.Cl.Nc1ncnn2c([C@@H]3N[C@H](CO)[C@@H](O)[C@H]3O)cc(-c3c[nH]cn3)c12` [Compound I-023]: in data set [5], the “Influenza SI (Selectivity Index)” value amounted to 52.7 and the EC50 came out at 0.983 µM. The same compound displayed a cytotoxic concentration (CC50) at 3 days in data set [3] of 157 µM. For the same compound, in data set [4], the “SARS-CoV-2 SI (Selectivity Index)” value was 923 and the EC50 is 0.17 µM. Further, in data set [6], the CC50 came out at 51.8 µM.
In the case of `Cl.Nc1ncnn2c([C@@H]3N[C@H](CO)[C@@H](O)[C@H]3O)cc(-c3n[nH]c4ccccc34)c12` [Compound I-049], it took 397 µM to reach half-maximal cytotoxicity in data set [3] (CC50 at 3 days). In data set [4], the “SARS-CoV-2 SI (Selectivity Index)” value was found to be 5.7 and the EC50 came out at 69.6 µM.
The compound `Cc1cc(-c2cc([C@@H]3N[C@H](CO)[C@@H](O)[C@H]3O)n3ncnc(N)c23)[nH]n1.Cl` [Compound I-050] had a cytotoxic concentration (CC50) at 3 days in data set [3] greater than 500 µM. In data set [4], the “SARS-CoV-2 SI (Selectivity Index)” value was greater than 11.0 and the EC50 is 45.4 µM.
On to `Cn1ncc(-c2cc([C@@H]3N[C@H](CO)[C@@H](O)[C@H]3O)n3ncnc(N)c23)n1` [Compound I-086], for which, in data set [1], the “SARS-CoV-2 SI (Selectivity Index), 293T-AT” value is given as 19.4 and the EC50 came out at 11.6 µM. This compound registered a CC50 at 3 days in data set [2] of 225 µM.
Take `Cc1cc(-c2cc([C@@H]3N[C@H](CO)[C@@H](O)[C@H]3O)n3nc(F)nc(N)c23)[nH]n1.Cl` [Compound I-084]: in data set [1], the “SARS-CoV-2 SI (Selectivity Index), 293T-AT” value was found to be 48.2 and the EC50 worked out at 5.33 µM. Further, the CC50 at 3 days in data set [2] was determined as 257 µM.
The corresponding values for `CCn1ccc(-c2cc([C@@H]3N[C@H](CO)[C@@H](O)[C@H]3O)n3ncnc(N)c23)n1.Cl` [Compound I-081] are 222, 1.38 µM and 306 µM.
Consider `CCn1cc(-c2cc([C@@H]3N[C@H](CO)[C@@H](O)[C@H]3O)n3ncnc(N)c23)cn1.Cl` [Compound I-044], for which it took 444 µM to reach half-maximal cytotoxicity in data set [3] (CC50 at 3 days). Moreover, in data set [4], the “SARS-CoV-2 SI (Selectivity Index)” value is listed as 16.6 and the EC50 turned out to be 22.6 µM.
The corresponding values for `Cl.NC(=O)c1cc([C@@H]2N[C@H](CO)[C@@H](O)[C@H]2O)n2nc(F)nc(N)c12` [Compound I-057] are 56.8 µM, 434 and 0.131 µM.
The corresponding values for `Cl.Nc1ncnn2c([C@@H]3N[C@H](CO)[C@@H](O)[C@H]3O)cc(-c3ccn[nH]3)c12` [Compound I-029] are 316 µM, 9.01 and 34.7 µM.
The corresponding values for `N#C[C@@]1(c2ccn3c(N)ncnc23)O[C@H](CO)[C@@H](O)[C@H]1O` [Compound I-046] are 485 µM, 15.6 and 31.1 µM.
On to `Cl.Nc1ncnn2c([C@@H]3N[C@H](CO)[C@@H](O)[C@H]3O)cc(-c3ccn(CCO)n3)c12` [Compound I-092], for which, in data set [1], the “SARS-CoV-2 SI (Selectivity Index), 293T-AT” value is recorded as greater than 1577 and the EC50 was found to be 0.317 µM. This compound gave a half-maximal cytotoxic concentration (CC50) at 3 days in data set [2] greater than 500 µM.
The corresponding values for `Cl.Nc1ncnn2c([C@@H]3N[C@H](CO)[C@@H](O)[C@H]3O)cc(-c3cc(O)ccn3)c12` [Compound I-087] are 3.97, 18.9 µM and 75 µM.
Turning to `Cl.Nc1ncnn2c([C@@H]3N[C@H](CO)[C@@H](O)[C@H]3O)cc(-c3ccc(F)cn3)c12` [Compound I-051], the CC50 at 3 days in data set [3] was greater than 500 µM. Moreover, in data set [4], the “SARS-CoV-2 SI (Selectivity Index)” value is greater than 6.13 and the EC50 was determined as 81.5 µM.
`N=C(N)c1cc([C@@H]2N[C@H](CO)[C@@H](O)[C@H]2O)n2ncnc(N)c12` [Compound I-017] had a half-maximal cytotoxic concentration (CC50) at 3 days in data set [3] greater than 500 µM. For the same compound, in data set [4], the “SARS-CoV-2 SI (Selectivity Index)” value is greater than 11.1 and the EC50 is 44.9 µM.
`C#CCNC(=O)c1cc([C@@H]2N[C@H](CO)[C@@H](O)[C@H]2O)n2ncnc(N)c12` [Compound I-075] displayed a CC50 at 3 days in data set [3] greater than 500 µM. In addition, in data set [4], the “SARS-CoV-2 SI (Selectivity Index)” value is listed as greater than 185 and the EC50 amounted to 2.7 µM.
The matching figures for `Cl.Nc1nc(F)nn2c([C@@H]3N[C@H](CO)[C@@H](O)[C@H]3O)cc(-c3cc[nH]n3)c12` [Compound I-052]: greater than 500 µM, greater than 79.7 and 6.27 µM.
For `Cl.Nc1ncnn2c([C@@H]3N[C@H](CO)[C@@H](O)[C@H]3O)cc(-c3nc[nH]n3)c12` [Compound I-037], in data set [5], the “Influenza SI (Selectivity Index)” value is reported as less than 1.70 and the EC50 was greater than 4 µM. Moreover, half-maximal cytotoxicity in data set [3] (CC50 at 3 days) was put at 17 µM. Further, in data set [4], the “SARS-CoV-2 SI (Selectivity Index)” value was 8.63 and the EC50 came to 1.97 µM. For the same compound, in data set [6], the midpoint of cytotoxicity, the CC50, lay at 6.81 µM.
Consider `Cl.[2H]C([2H])(O)[C@H]1N[C@@H](c2cc(C(N)=O)c3c(N)ncnn23)[C@H](O)[C@@H]1O` [Compound I-095], for which, in data set [1], the “SARS-CoV-2 SI (Selectivity Index), 293T-AT” value is 2769 and the EC50 came to 0.0228 µM. Moreover, it took 62.9 µM to reach half-maximal cytotoxicity in data set [2] (CC50 at 3 days).
The corresponding values for `Cc1c[nH]c(-c2cc([C@@H]3N[C@H](CO)[C@@H](O)[C@H]3O)n3ncnc(N)c23)n1` [Compound I-091] are greater than 2.29, 218 µM and greater than 250 µM.
